# Test results from ChEMBL document CHEMBL1201862, “PubChem BioAssay data set” (2004).
#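 Exposure lasted 48 hours, with cells grown in 96-well plates and compounds tested at five concentrations. The concentration for 50% growth inhibition is given as GI50.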 Calls of active or inactive are those of the source. No stated cut-off is given here; in the data, active = GI50 up to about 1.1 µM and inactive = higher.
# Columns and labels:
# Experiment in all cases: NCI-60 cell line screen, 48 h
# CCRF-CEM = test system: CCRF-CEM
# HL-60 = test system: HL-60
# ACHN = test system: ACHN
# SK-MEL-28 = test system: SK-MEL-28
# CAKI-1 = test system: CAKI-1
# EKVX = test system: EKVX
# NCI-H226 = test system: NCI-H226
# DMS-114 = test system: DMS-114
# KM-20L2 = test system: KM-20L2
# A498 = test system: A498
# HOP-92 = test system: HOP-92
# SF-539 = test system: SF-539
# SK-MEL-5 = test system: SK-MEL-5
# NCI-H460 = test system: NCI-H460
# SNB-19 = test system: SNB-19
# HOP-62 = test system: HOP-62
# NCI-H23 = test system: NCI-H23
# OVCAR-3 = test system: OVCAR-3
# HCT-15 = test system: HCT-15
# TK-10 = test system: TK-10
# HT-29 = test system: HT-29
# HCC 2998 = test system: HCC 2998
# SW-620 = test system: SW-620
# RPMI-8226 = test system: RPMI-8226
# KM12 = test system: KM12
# K562 = test system: K562
# M14 = test system: M14
# Malme-3M = test system: Malme-3M
# OVCAR-8 = test system: OVCAR-8
# DLD-1 = test system: DLD-1
# SN12C = test system: SN12C
# A549 = test system: A549
# RXF 393 = test system: RXF 393
# SF-295 = test system: SF-295
# U-251 = test system: U-251
# NCI-H522 = test system: NCI-H522
# SNB-78 = test system: SNB-78
# OVCAR-5 = test system: OVCAR-5
# MOLT-4 = test system: MOLT-4
# IGROV-1 = test system: IGROV-1
# UACC-257 = test system: UACC-257
# DMS-273 = test system: DMS-273
# UO-31 = test system: UO-31
# SK-MEL-2 = test system: SK-MEL-2
# COLO 205 = test system: COLO 205
# UACC-62 = test system: UACC-62
# M19-MEL = test system: M19-MEL
# SK-OV-3 = test system: SK-OV-3
# OVCAR-4 = test system: OVCAR-4
# 786-0 = test system: 786-0
# SNB-75 = test system: SNB-75
# SF-268 = test system: SF-268
# LOX IMVI = test system: LOX IMVI
compound,measurement,setting,value
Cc1ccc(S(=O)(=O)N(/N=C/C=C/c2ccccc2)c2nnc(-c3ccccc3)c(-c3ccccc3)n2)cc1,GI50,CCRF-CEM,21.9 µM (inactive)
same,GI50,HL-60,14.9 µM (inactive)
same,GI50,ACHN,29.8 µM (inactive)
same,GI50,SK-MEL-28,26.3 µM (inactive)
same,GI50,CAKI-1,17.9 µM (inactive)
same,GI50,EKVX,24.9 µM (inactive)
same,GI50,NCI-H226,18.3 µM (inactive)
same,GI50,DMS-114,16.3 µM (inactive)
same,GI50,KM-20L2,17.9 µM (inactive)
same,GI50,A498,36.8 µM (inactive)
same,GI50,HOP-92,19 µM (inactive)
same,GI50,SF-539,16.1 µM (inactive)
same,GI50,SK-MEL-5,14.9 µM (inactive)
same,GI50,NCI-H460,21.7 µM (inactive)
same,GI50,SNB-19,71.9 µM (inactive)
same,GI50,HOP-62,18.3 µM (inactive)
same,GI50,NCI-H23,15.8 µM (inactive)
same,GI50,OVCAR-3,20.1 µM (inactive)
same,GI50,HCT-15,25.6 µM
same,GI50,TK-10,24.7 µM (inactive)
same,GI50,HT-29,0.619 µM (active)
same,GI50,HCC 2998,13.3 µM (inactive)
same,GI50,SW-620,30.4 µM (inactive)
same,GI50,RPMI-8226,11.3 µM (inactive)
same,GI50,KM12,23 µM (inactive)
same,GI50,K562,15 µM (inactive)
same,GI50,M14,20.8 µM (inactive)
same,GI50,Malme-3M,30 µM (inactive)
same,GI50,OVCAR-8,25.6 µM (inactive)
same,GI50,DLD-1,21.9 µM (inactive)
same,GI50,SN12C,38.4 µM (inactive)
same,GI50,A549,16.9 µM (inactive)
same,GI50,RXF 393,19 µM (inactive)
same,GI50,SF-295,19 µM (inactive)
same,GI50,U-251,32.1 µM (inactive)
same,GI50,NCI-H522,15.9 µM (inactive)
same,GI50,SNB-78,16.8 µM (inactive)
same,GI50,OVCAR-5,41.2 µM (inactive)
same,GI50,MOLT-4,12.9 µM (inactive)
same,GI50,IGROV-1,34.6 µM (inactive)
same,GI50,UACC-257,13.3 µM (inactive)
same,GI50,DMS-273,18.9 µM (inactive)
same,GI50,UO-31,5.86 µM (inactive)
same,GI50,SK-MEL-2,17 µM (inactive)
same,GI50,COLO 205,16.9 µM (inactive)
same,GI50,UACC-62,26.7 µM (inactive)
same,GI50,M19-MEL,28.1 µM (inactive)
same,GI50,SK-OV-3,34.5 µM (inactive)
same,GI50,OVCAR-4,9.82 µM (inactive)
same,GI50,786-0,20.8 µM (inactive)
same,GI50,SNB-75,22.4 µM (inactive)
same,GI50,SF-268,25.9 µM (inactive)
same,GI50,LOX IMVI,21.5 µM (inactive)
CC1=CC(=O)c2[nH]c3ccccc3c2C1=O [MURRAYAQUINONE A],GI50,DMS-114,4.26 µM (inactive)
same,GI50,KM-20L2,> 25 µM (inactive)
same,GI50,SNB-19,> 25 µM (inactive)
same,GI50,HOP-62,> 25 µM (inactive)
same,GI50,OVCAR-3,4.53 µM (inactive)
same,GI50,RPMI-8226,5.96 µM (inactive)
same,GI50,OVCAR-8,4.02 µM (inactive)
same,GI50,A549,> 25 µM (inactive)
same,GI50,OVCAR-5,5.4 µM (inactive)
same,GI50,OVCAR-4,4.16 µM (inactive)
